{"source": "patent US10021880B2", "about": "“Diarylimidazole compound and harmful organism control agent” (Nippon Soda Co., Ltd., priority 2014, dated 2018)", "key": {"[1]": {"system": "Plutella xylostella", "assay": "Efficacy test against Plutella xylostella (cabbage leaf dip)", "type": "in vivo", "settings": "foliar, 72 h, cabbage leaves soaked 30 seconds, second-instar larvae, after 3 days, 25° C., read-out: mortality rate against Plutella xylostella", "description": "(§1) 5 parts of the compound of the present invention, 93.6 parts of dimethyl formamide and 1.4 parts of polyoxyethylene alkylaryl ether were mixed and dissolved to obtain emulsion (I) including 5% of active ingredient.\n(§2) Emulsion (I) was diluted with water so that the concentration of the compound of the present invention reaches 125 ppm. Cabbage leaves were soaked in the diluted liquid for 30 seconds. Then the cabbage leaves were put on Petri dishes, followed by inoculating 5 second-instar larvae of Plutella xylostella. The Petri dishes were placed in a temperature-controlled room with a temperature was 25° C. and humidity of 60%. Mortality was investigated after 3 days were passed, and the insect mortality rate was calculated. The test was repeated twice."}, "[2]": {"system": "Aphis gossypii", "assay": "Efficacy test against Aphis gossypii (spray on cucumber seedlings)", "type": "in vivo", "settings": "sprayed on cucumber seedlings inoculated with nymphs, 4 days after spraying, read-out: mortality rate against Aphis gossypii", "description": "as §1\nCucumber plants were raised in No. 3 pots and the first true leaves were inoculated with nymphs of Aphis gossypii. Emulation (I) was diluted with water so that the concentration of the compound of the present invention reaches 125 ppm, followed by spraying the diluted liquid on the cucumber seedlings. The cucumber seedlings were then placed in a temperature-controlled room with a temperature of 25° C. and humidity of 60%. Mortality was investigated after 4 days were passed from the spraying, and the insect mortality rate of Aphis gossypii was calculated. The test was repeated twice."}, "[3]": {"system": "Pseudaletia separate", "assay": "Efficacy test against Pseudaletia separate (maize leaf dip)", "type": "in vivo", "settings": "foliar, 144 h, maize leaves soaked 30 seconds, second-instar larvae, after 6 days, 25° C., read-out: insect mortality rate against Pseudaletia separate", "description": "as §1\nas §2, with “ppm. Maize” for “ppm. Cabbage”, “the maize” for “the cabbage”, “of Pseudaletia separate.” for “of Plutella xylostella.”, “temperature of” for “temperature was”, “after 6” for “after 3”"}, "[4]": {"system": "Spodoptera litura", "assay": "Efficacy test against Spodoptera litura (cabbage leaf dip)", "type": "in vivo", "settings": "foliar, 144 h, cabbage leaves soaked 30 seconds, second-instar larvae, after 6 days, 25° C., read-out: insect mortality rate against Spodoptera litura", "description": "as §1\nas §2, with “Emulation (I)” for “Emulsion (I)”, “of Spodoptera litura.” for “of Plutella xylostella.”, “after 6” for “after 3”"}, "[5]": {"system": "Tetranychus kanzawai", "assay": "Efficacy test against Tetranychus kanzawai (spray on kidney bean seedlings)", "type": "in vivo", "settings": "240 h, sprayed on kidney bean seedlings, adult mortality 10 days after spraying, 25° C., humidity 65%, read-out: mortality rate against Tetranychus kanzawai", "description": "as §1\nKidney bean plants were raised in No. 3 pots and the primary leaves were inoculated with 10 adult female Tetranychus kanzawai. Emulation (I) was diluted with water so that the concentration of the compound of the present invention reaches 125 ppm, followed by spraying the diluted liquid on the kidney bean seedlings. The kidney bean seedlings were then placed in a temperature-controlled room with a temperature of 25° C. and humidity of 65%. Mortality of the adult Tetranychus kanzawai was investigated after 10 days were passed from the spraying, and the insect mortality rate of Tetranychus kanzawai was calculated. The test was repeated twice."}, "[6]": {"system": "Musca domestica", "assay": "Efficacy test against Musca domestica (treated cube sugar)", "type": "in vivo", "settings": "100 ppm on cube sugar, after 24 hours, 25° C.", "description": "The compound of the present invention was diluted with acetone, followed by dropping to 1 g of cube sugar so that the concentration reaches to 100 ppm. The cube sugar was placed in a plastic cup and 10 adult female Musca domestica were released therein, followed by putting the lid on the cup. The cup was kept at 25° C., the mortality was investigated after 24 hours was passed from the releasing of Musca domestica and the insect mortality rate was calculated by the following equation. The test was repeated twice. Insect mortality rate (%)=(number of dead insects/number of sample insects)×100"}, "[7]": {"system": "Culex pipiens", "assay": "Efficacy test against Culex pipiens (larvae in chemical solution)", "type": "in vivo", "settings": "2 ppm in water, after 1 day", "description": "as §1\nEmulsion (I) was diluted with water so that the concentration of the compound of the present invention reaches 2 ppm to prepare a chemical solution for test. 20 first-instar larvae of Culex pipiens were released into 100 ml of the chemical solution for test, then the number of dead insects was calculated after 1 day was passed, and the insect mortality rate was calculated by the following equation. The test was repeated twice. Insect mortality rate (%)=(number of dead insects/number of sample insects)×100"}, "[8]": {"system": "Aphis gossypii", "assay": "Efficacy test against Aphis gossypii (root-dipping test)", "type": "in vivo", "settings": "8 ppm in hydroponic liquid, cucumber, nymphs, after 6 days", "excerpt": "as §1\nCucumber plants raised in No. 3 pots were pulled out from the pots, then the soil attached to the roots was washed with tap water, followed by hydroponic-cultivating the cucumber plants by soaking the roots in tap water. The cucumber seedlings were inoculated with nymphs of Aphis gossypii. Emulsion (I) was diluted with water to obtain a diluted liquid with a concentration of 8 ppm of the compound of the present invention. The tap water was replaced with the diluted liquid, and then the hydrophonic-cultivation was continued in a temperature-controlled room with a temperature was 25° C. and humidity of 60%.\nAfter 6 days were passed from the hydrophonic-cultivation in the diluted liquid, mortality of Aphis gossypii was investigated and the insect mortality rate was calculated. The test was repeated twice."}}}
{"smiles": "Cn1c(-c2ccc(C(F)(F)F)cc2)c[n+]([O-])c1-c1ccc(C(F)(F)F)cc1F", "values": [{"measurement": "melting point", "value": "229 to 231", "unit": "°C"}]}
{"smiles": "CCS(=O)(=O)c1cc(C(F)(F)F)ccc1-c1ncc(-c2ccc(C(F)(F)F)cc2)n1C", "note": "[Compound 1-3, 2-(2-(ethylsulfonyl)-4-(trifluoromethyl)phenyl)-1-methyl-5-(4-(trifluoromethyl)phenyl)-1H-imidazole]", "values": [{"measurement": "mortality at 125 ppm", "setting": "[1]", "value": "≥ 80", "unit": "%"}, {"measurement": "mortality at 125 ppm", "setting": "[2]", "value": "≥ 80", "unit": "%"}, {"measurement": "mortality at 125 ppm", "setting": "[3]", "value": "≥ 80", "unit": "%"}, {"measurement": "mortality at 125 ppm", "setting": "[4]", "value": "≥ 80", "unit": "%"}]}
{"smiles": "Cn1c(-c2ccc(C(F)(F)F)cc2)cnc1-c1ccc(C(F)(F)F)cc1F", "note": "[Compound 1-4, 2-(2-fluoro-4-(trifluoromethyl)phenyl)-1-methyl-5-(4-(trifluoromethyl)phenyl)-1H-imidazole]", "values": [{"measurement": "mortality at 125 ppm", "setting": "[5]", "value": "≥ 90", "unit": "%"}]}
{"smiles": "CCSc1cc(C(F)(F)F)ccc1-c1ncc(-c2ccc(C(F)(F)F)cc2)n1C", "note": "[Compound 1-7, 2-(2-(ethylsulfanyl)-4-(trifluoromethyl)phenyl)-1-methyl-5-(4-(trifluoromethyl)phenyl)-1H-imidazole]", "values": [{"measurement": "mortality at 125 ppm", "setting": "[1]", "value": "≥ 80", "unit": "%"}, {"measurement": "mortality at 125 ppm", "setting": "[3]", "value": "≥ 80", "unit": "%"}, {"measurement": "mortality at 125 ppm", "setting": "[4]", "value": "≥ 80", "unit": "%"}]}
{"smiles": "CCS(=O)(=O)c1cc(C(F)(F)F)ccc1-c1ncc(-c2ccc(OC(F)(F)F)cc2)n1C", "note": "[Compound 1-35]", "values": [{"measurement": "insect mortality rate against the adult female Musca domestica", "setting": "[6]", "value": 100, "unit": "%"}, {"measurement": "insect mortality rate against the first-instar larvae of Culex pipiens", "setting": "[7]", "value": 100, "unit": "%"}]}
{"smiles": "CCS(=O)(=O)c1cnccc1-c1ncc(-c2ccc(C(F)(F)F)cc2)n1C", "note": "[Compound 3-1]", "values": [{"measurement": "insect mortality rate (Aphis gossypii, root-dipping test)", "setting": "[8]", "value": "≥ 80", "unit": "%"}]}
